The record followed here is patent publication EP0395312B1, “Piperazine derivatives” (JOHN WYETH & BROTHER LIMITED, priority 1989, dated 1990).

Test [1] concerns the target T1, 5-HT1A receptor (Rattus norvegicus, UniProt P19327).
T1 construct: rat hippocampal membrane homogenate; from tissue; host or cells: rat hippocampus membrane homogenate
T1 sequence (P19327 1-422): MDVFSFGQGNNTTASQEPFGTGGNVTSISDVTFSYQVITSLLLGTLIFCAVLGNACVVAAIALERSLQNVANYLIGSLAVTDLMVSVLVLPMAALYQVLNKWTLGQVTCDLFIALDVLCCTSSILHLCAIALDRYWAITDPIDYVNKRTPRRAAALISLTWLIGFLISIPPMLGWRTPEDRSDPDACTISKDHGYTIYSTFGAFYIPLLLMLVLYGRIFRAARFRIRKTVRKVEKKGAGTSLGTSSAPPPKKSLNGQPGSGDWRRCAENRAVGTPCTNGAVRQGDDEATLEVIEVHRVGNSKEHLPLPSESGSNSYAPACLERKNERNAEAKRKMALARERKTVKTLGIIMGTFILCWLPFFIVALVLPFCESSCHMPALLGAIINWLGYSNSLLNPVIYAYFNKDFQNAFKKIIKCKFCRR
In words: 5-HT1A receptor binding activity in rat hippocampal membrane homogenate. As for the experimental part:
The compounds of the invention were tested for 5-HT1A receptor binding activity in rat hippocampal membrane homogenate by the method of B S Alexander and M D Wood, J Pharm Pharmarol, 1988, 40, 888-891.

Test [2] has as its system α1 sites. In words: Affinity for α1 sites (procedure of Morrow et al). The format is binding. To be noted: read-out: Affinity for α1 site IC50.
The target in test [3] is T2, 5-HT1A receptor (Cavia porcellus, UniProt A0A286Y074).
T2 construct: in the guine-pig ileum in in vitro; from tissue; host or cells: guinea-pig isolated ileum
T2 sequence (A0A286Y074 1-421): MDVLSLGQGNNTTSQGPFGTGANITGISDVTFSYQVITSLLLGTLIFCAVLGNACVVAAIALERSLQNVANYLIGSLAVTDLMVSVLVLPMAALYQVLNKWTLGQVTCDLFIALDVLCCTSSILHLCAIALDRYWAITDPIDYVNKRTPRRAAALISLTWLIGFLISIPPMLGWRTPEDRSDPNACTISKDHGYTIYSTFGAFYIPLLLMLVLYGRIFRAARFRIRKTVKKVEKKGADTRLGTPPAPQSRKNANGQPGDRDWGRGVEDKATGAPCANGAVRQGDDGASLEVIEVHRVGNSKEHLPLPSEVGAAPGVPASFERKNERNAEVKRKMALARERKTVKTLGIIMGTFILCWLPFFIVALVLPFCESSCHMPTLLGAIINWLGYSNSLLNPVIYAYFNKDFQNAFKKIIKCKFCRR
In words: 5-HT1A receptor antagonism: antagonism of 5-carboxamidotryptamine in isolated ileum in vitro. The arrangement: species or system guine-pig. Conditions: guinea-pig ileum in vitro, read-out: pA2 (converted).
Description: The compounds are tested for 5-HT1A receptor antagonism activity in a test involving the antagonism of 5-carboxamidotryptamine in the guine-pig ileum in in vitro (based upon the procedure of Fozard et al, Br J Pharmac 1985, 86, 601P).

Test [4] deals with D2 receptor sites (Homo sapiens, UniProt P14416). In words: Affinity for D2 receptor sites (procedure of Hancock et al). To be noted: read-out: Affinity for D2 site IC50. It is filed as binding.
D2 receptor sites, sequence (P14416 whole entry): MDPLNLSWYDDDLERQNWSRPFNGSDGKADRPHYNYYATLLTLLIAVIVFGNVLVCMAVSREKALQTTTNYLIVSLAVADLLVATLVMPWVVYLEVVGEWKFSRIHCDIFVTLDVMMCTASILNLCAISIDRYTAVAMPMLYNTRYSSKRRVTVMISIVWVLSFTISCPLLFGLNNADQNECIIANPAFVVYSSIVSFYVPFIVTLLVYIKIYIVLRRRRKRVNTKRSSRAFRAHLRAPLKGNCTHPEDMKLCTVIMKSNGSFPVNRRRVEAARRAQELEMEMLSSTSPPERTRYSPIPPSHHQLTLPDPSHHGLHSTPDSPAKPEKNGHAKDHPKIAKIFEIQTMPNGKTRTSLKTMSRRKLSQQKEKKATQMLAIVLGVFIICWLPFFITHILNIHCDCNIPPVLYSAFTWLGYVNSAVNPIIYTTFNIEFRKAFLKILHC
Setting [5] is: 5-HT1A receptor binding, rat hippocampal membrane homogenate, read-out: IC50.

Read-outs that look alike come from different tables or passages of the source.

A word on the IC50: it is the point on the concentration scale where inhibition reaches its midpoint. With `O=C(NC1CCCCC1)C(CN1CCN(c2ncccn2)CC1)c1ccccc1` (stereo not shown) [Example 24, N-Cyclohexyl-2-phenyl-3-{1-[4-(2-pyrimidinyl)piperazinyl]}propanamide], the values for the IC50 in test [1] (setting [5]) and in test [2] were 75 nM and more than 10000 nM, respectively.

Consider `COc1ccccc1N1CCN(CC(C(=O)N2CCCCCC2)c2ccccc2)CC1` (stereo not shown) [Example 34, 2,3,4,5,6,7-hexahydro-1-{3-{1-[4-(2-methoxyphenyl)piperazinyl]}-2-phenylpropionyl}-1H-azepine], for which the half-maximal inhibitory concentration (IC50) in test [1] was 9 nM.

Turning to `COc1ccccc1N1CCN(CC(OC(=O)C2CCCCC2)c2ccccc2)CC1` (stereo not shown) [Example 40, 2-{1-[4-(2-Methoxyphenyl)piperazinyl]}-1-phenylethyl cyclohexanecarboxylate], the IC50 in test [1] (setting [5]) is 78 nM.

As to `COc1ccccc1N1CCN(CC(OC(=O)Nc2ccccc2)c2ccccc2)CC1` (stereo not shown) [Example 39, O-[2-[1-[4-(2-Methoxyphenyl)piperazinyl]]-1-phenylethyl]-N-phenylcarbamate], in test [1] (setting [5]), the 50% inhibitory concentration (IC50) stood at 22 nM.

As to `COc1ccccc1N1CCN(CC(C(=O)N2CCCCC2)c2ccccc2)CC1` (stereo not shown) [Example 33, 1-{3-{1-[4-(2-methoxyphenyl)piperazinyl]}-2-phenylpropionyl}piperidine], in test [1] (setting [5]), the half-inhibitory concentration (IC50) amounted to 8 nM.

Consider `COc1ccccc1N1CCN(CC(C(=O)NCc2ccccc2)c2ccccc2)CC1` (stereo not shown) [Example 23, 3-{1-[4-(2-Methoxyphenyl)piperazinyl]}-2-phenyl-N-(phenylmethyl)propanamide], for which, in test [3], the Kb was 100 nM. Also, the 50% inhibitory concentration (IC50) in test [1] (setting [5]) amounted to 59 nM.

For `CCOC(=O)C(Cc1ccccc1)CN1CCN(c2ccccc2OC)CC1` (stereo not shown) [Example 29, Ethyl 2-{1-[4-(2-methoxyphenyl)piperazinyl]methyl}-3-phenylpropanoate], the 50% inhibitory concentration (IC50) in test [1] (setting [5]) came to 25 nM.

`COc1ccccc1N1CCN(CC(C(=O)NC2CCCCCCC2)c2ccccc2)CC1` (stereo not shown) [Example 35]: the IC50 in test [1] (setting [5]) amounted to 16.5 nM.

Regarding `COc1ccccc1N1CCN(CC(C(=O)NC2CCCCC2)c2ccccc2)CC1` (stereo not shown) [Example 19], the Kb in test [3] was 126 nM. In addition, the 50% inhibitory concentration (IC50) is 24 nM in test [1] (setting [5]) and 6290 nM in test [4].

With `COc1ccccc1N1CCN(CC(C(=O)N2CCCC2)c2ccccc2)CC1` (stereo not shown) [Example 32, 1-{3-{1-[4-(2-methoxyphenyl)piperazinyl]}-2-phenylpropionyl}pyrrolidine], the Kb in test [3] is 158 nM. Moreover, the IC50 was 21 nM in test [1] (setting [5]), more than 10000 nM in test [4] and 851 nM in test [2].

With `CNC(=O)C(CN1CCN(c2ccccc2OC)CC1)c1ccccc1` (stereo not shown) [Example 8, methylamide], the IC50 in test [1] (setting [5]) was 45 nM.

As for `COc1ccccc1N1CCN(C[C@@H](NC(=O)C2CCCCC2)c2ccccc2)CC1` [Example 37, (S)-N-[2-[1-[4-(2-Methoxyphenyl)piperazinyl]]-1-phenylethyl]cyclohexanecarboxylic acid amide], the Kb in test [3] is 25.1 nM. In addition, the half-inhibitory concentration (IC50) in test [1] (setting [5]) is 45 nM; in test [2], 7310 nM.

Take `COc1ccccc1N1CCN(CC(C(=O)OCC(C)C)c2ccccc2)CC1` (stereo not shown) [Example 26, 2-Methylpropyl 3-{1-[4-(2-methoxyphenyl)piperazinyl]}-2-phenylpropanoate]: in test [3], the Kb was 158 nM. Besides, the half-inhibitory concentration (IC50) worked out at 46 nM in test [1] (setting [5]) and 1090 nM in test [2].

On to `COC(=O)C(CN1CCN(c2ccccc2OC)CC1)c1ccccc1` (stereo not shown) [Example 42, Methyl 3-[1-[4-(2-methoxyphenyl)piperazinyl]]-2-phenylpropionate], for which, in test [3], the Kb is 126 nM. The half-maximal inhibitory concentration (IC50) in test [1] (setting [5]) amounted to 37 nM; in test [2], 988 nM.

In the case of `COc1ccccc1N1CCN(CC(C(=O)NCCN2C(=O)CC3(CCCC3)CC2=O)c2ccccc2)CC1` (stereo not drawn) [Example 21, 8-{α-{1-[4-(2-methoxyphenyl)piperazinyl]methyl}phenylacetamidoethyl}-8-azaspiro[4.5]deca-7,9-dione], the Kb in test [3] was 126 nM. Moreover, the figures for the IC50 in test [1] (setting [5]) and in test [2] were 49 nM and 1200 nM, respectively.

Turning to `CCOC(=O)N[C@H](CN1CCN(c2ccccc2OC)CC1)c1ccccc1` [Example 41, Ethyl(S)-N-[2-[1-[4-(2-methoxyphenyl)piperazinyl]]-1-phenylethyl]carbamate], the IC50 in test [1] (setting [5]) came out at 88 nM; in test [2], 2850 nM.

For `COc1ccccc1N1CCN(CC(C(=O)NC2CC2)c2ccccc2)CC1` (stereo not shown) [Example 31, cyclopropyl-amide], the Kb in test [3] is 39.8 nM. Besides, the half-inhibitory concentration (IC50) in test [1] (setting [5]) worked out at 28 nM.

`COc1ccccc1N1CCN(CC(C(=O)Nc2ccccc2)c2ccccc2)CC1` (stereo not shown) [Example 6, 3-{1-[4-(2-Methoxyphenyl)piperazinyl]}-2-phenyl-N-phenylpropanamide]: the half-maximal inhibitory concentration (IC50) in test [1] (setting [5]) came out at 127 nM.

In the case of `COc1ccccc1N1CCN(CC(C(=O)N(C)C)c2ccccc2)CC1` (stereo not shown) [Example 22, N,N-Dimethyl-3-{1-[4-(2-methoxyphenyl)piperazinyl]}-2-phenylpropanamide], the 50% inhibitory concentration (IC50) in test [1] (setting [5]) is 45 nM; in test [2], 1230 nM.
